Key:
[1] = Metabolic stability in iv dosed Sprague-Dawley rat bile assessed as raltegravir-glucuronide recovery; format: ADME, organism-based; details: in vivo
[2] = Metabolic stability in iv dosed dog urine assessed as drug recovery; format: ADME, organism-based, Canis lupus familiaris; details: read-out: Drug uptake
[3] = Metabolic stability in iv dosed Sprague-Dawley rat urine assessed as drug recovery; format: ADME, organism-based; details: read-out: Drug uptake
[4] = Metabolic stability in iv dosed dog urine assessed as raltegravir-glucuronide recovery; format: ADME, organism-based, Canis lupus familiaris; details: in vivo
[5] = system: Liver microsomes; assay: Metabolic stability in human liver microsomes; format: ADME, Microsome
[6] = Metabolic stability in iv dosed dog urine assessed as drug recovery after 0 to 24 hrs; format: ADME, organism-based, Canis lupus familiaris; details: read-out: Drug uptake
[7] = Metabolic stability in dog liver microsomes; format: ADME, Canis lupus familiaris, Microsome
[8] = system: Liver microsomes; assay: Metabolic stability in Sprague-Dawley rat liver microsomes; format: ADME, Microsome
[9] = Metabolic stability in iv dosed Sprague-Dawley rat urine assessed as raltegravir-glucuronide recovery; format: ADME, organism-based; details: in vivo
[10] = Metabolic stability in iv dosed Sprague-Dawley rat bile assessed as drug recovery; format: ADME, organism-based; details: read-out: Drug uptake
[11] = Metabolic stability in rhesus monkey liver microsomes; format: ADME, Macaca mulatta, Microsome
[12] = Metabolic stability in Sprague-Dawley rat bile; format: ADME
[13] = Metabolic stability in po dosed dog bile; format: ADME, organism-based, Canis lupus familiaris; details: in vivo
[14] = Cmax in Sprague-Dawley rat at 3 mg/kg, po; format: ADME, organism-based; design: dose 3 mg/kg, route oral; details: in vivo
[15] = target: Cytochrome P450 2C9 (Homo sapiens, UniProt P11712); assay: Inhibition of CYP2C9; format: ADME
[16] = AUC in Sprague-Dawley rat at 100 mg/kg, po using PEG400 as vehicle; format: ADME, organism-based; design: dose 100 mg/kg, route oral; details: plasma
[17] = target: Human immunodeficiency virus type 1 integrase (Human immunodeficiency virus 1, UniProt Q7ZJM1); assay: Inhibition of HIV1 recombinant integrase strand transfer activity
[18] = AUC in dog at 10 mg/kg, po; format: ADME, organism-based, Canis lupus familiaris; design: dose 10 mg/kg, route oral; details: plasma
[19] = Terminal half life in Sprague-Dawley rat at 3 mg/kg, iv; format: ADME, organism-based; design: dose 3 mg/kg, route intravenous; details: in vivo, read-out: beta t1/2 (converted)
[20] = Inhibition of HIV ribonuclease H; design: species or system Human immunodeficiency virus
[21] = target: Cytochrome P450 2D6 (Homo sapiens, UniProt P10635); assay: Inhibition of CYP2D6; format: ADME
[22] = system: Human immunodeficiency virus 1; assay: Antiviral activity against HIV1 with integrase N155S mutation by single cycle infectivity assay in presence of 10%FBS; format: functional
[23] = target: DNA polymerase beta (Homo sapiens, UniProt P06746); assay: Inhibition of human DNA polymerase beta
[24] = system: Human immunodeficiency virus 1; assay: Antiviral activity against HIV1 with integrase T125K/F121Y mutation by single cycle infectivity assay in presence of 10%FBS; format: functional
[25] = AUC in Sprague-Dawley rat at 100 mg/kg, po using 1% methyl cellulose as vehicle; format: ADME, organism-based; design: dose 100 mg/kg, route oral; details: in vivo
[26] = Plasma clearance in Sprague-Dawley rat at 3 mg/kg, iv; format: ADME, organism-based; design: dose 3 mg/kg, route intravenous
[27] = Terminal half life in po dosed Sprague-Dawley rat; format: ADME, organism-based; details: in vivo
[28] = Terminal half life in po dosed rhesus monkey; format: ADME, organism-based, Macaca mulatta; details: in vivo, read-out: beta t1/2 (converted)
[29] = Cmax in rhesus monkey at 10 mg/kg, po; format: ADME, organism-based, Macaca mulatta; design: dose 10 mg/kg, route oral; details: in vivo
[30] = target: Cytochrome P450 3A4 (Homo sapiens, UniProt P08684); assay: Inhibition of CYP3A4; format: ADME
[31] = Cmax in dog at 10 mg/kg, po; format: ADME, organism-based, Canis lupus familiaris; design: dose 10 mg/kg, route oral; details: in vivo
[32] = system: Human immunodeficiency virus 1; assay: Antiviral activity against HIV1 3B in human MT4 cells in presence of 50% normal human serum; format: functional; details: read-out: CIC95
[33] = system: Human immunodeficiency virus 1; assay: Antiviral activity against HIV1 3B in human MT4 cells in presence of 10% heat-inactivated fetal bovine serum; details: Human immunodeficiency virus 1, 3B, read-out: CIC95
[34] = Terminal half life in dog at 10 mg/kg, po; format: ADME, organism-based, Canis lupus familiaris; design: dose 10 mg/kg, route oral; details: in vivo, read-out: beta t1/2 (converted)
[35] = Plasma clearance in dog at 5 mg/kg, iv; format: ADME, organism-based, Canis lupus familiaris; design: dose 5 mg/kg, route intravenous
[36] = AUC in Sprague-Dawley rat at 3 mg/kg, po; format: ADME, organism-based; design: dose 3 mg/kg, route oral; details: plasma
[37] = Primary phase half life in dog at 5 mg/kg, iv; format: ADME, organism-based, Canis lupus familiaris; design: dose 5 mg/kg, route intravenous; details: in vivo, read-out: alphat1/2 (converted)
[38] = Volume of distribution in rhesus monkey at 1 mg/kg, iv; details: in vivo
[39] = Volume of distribution in Sprague-Dawley rat at 3 mg/kg, iv; format: ADME, organism-based; design: dose 3 mg/kg, route intravenous; details: in vivo
[40] = target: Voltage-gated inwardly rectifying potassium channel KCNH2 (Homo sapiens, UniProt Q12809); assay: Binding affinity to human ERG
[41] = Cmax in Sprague-Dawley rat at 100 mg/kg, po using 1% methyl cellulose as vehicle; format: ADME, organism-based; design: dose 100 mg/kg, route oral; details: in vivo
[42] = Volume of distribution in dog at 5 mg/kg, iv; format: ADME, organism-based, Canis lupus familiaris; design: dose 5 mg/kg, route intravenous; details: in vivo
[43] = Terminal half life in rhesus monkey at 1 mg/kg, iv; format: ADME, organism-based, Macaca mulatta; design: dose 1 mg/kg, route intravenous; details: in vivo, read-out: beta t1/2 (converted)
[44] = system: Human immunodeficiency virus 1; assay: Antiviral activity against HIV1 with integrase T66I/L74M/V151I mutation by single cycle infectivity assay in presence of 10%FBS; format: functional
[45] = Inhibition of HCV polymerase; design: species or system Hepacivirus hominis
[46] = system: Human immunodeficiency virus 1; assay: Antiviral activity against HIV1 with integrase T66I/M154 mutation by single cycle infectivity assay in presence of 10%FBS; format: functional
[47] = Inhibition of HIV reverse transcriptase; design: species or system Human immunodeficiency virus
[48] = Inhibition of human DNA polymerase alpha
[49] = system: Human immunodeficiency virus 1; assay: Antiviral activity against HIV1 with integrase T66I/S153Y mutation by single cycle infectivity assay in presence of 10%FBS; format: functional
[50] = Inhibition of human DNA polymerase gamma
[51] = AUC in rhesus monkey at 10 mg/kg, po; format: ADME, organism-based, Macaca mulatta; design: dose 10 mg/kg, route oral; details: plasma
[52] = Plasma clearance in rhesus monkey at 1 mg/kg, iv; format: ADME, organism-based, Macaca mulatta; design: dose 1 mg/kg, route intravenous
[53] = Primary phase half life in Sprague-Dawley rat at 3 mg/kg, iv; format: ADME, organism-based; design: dose 3 mg/kg, route intravenous; details: in vivo, read-out: alphat1/2 (converted)
[54] = Oral bioavailability in po dosed rhesus monkey; format: ADME, organism-based, Macaca mulatta; details: in vivo
[55] = Terminal half life in dog at 5 mg/kg, iv; format: ADME, organism-based, Canis lupus familiaris; design: dose 5 mg/kg, route intravenous; details: in vivo, read-out: beta t1/2 (converted)
[56] = target: T1, Cytochrome P450 1A2 (Homo sapiens, UniProt P05177); assay: Inhibition of CYP1A2; format: ADME
T1 sequence (P05177 whole entry): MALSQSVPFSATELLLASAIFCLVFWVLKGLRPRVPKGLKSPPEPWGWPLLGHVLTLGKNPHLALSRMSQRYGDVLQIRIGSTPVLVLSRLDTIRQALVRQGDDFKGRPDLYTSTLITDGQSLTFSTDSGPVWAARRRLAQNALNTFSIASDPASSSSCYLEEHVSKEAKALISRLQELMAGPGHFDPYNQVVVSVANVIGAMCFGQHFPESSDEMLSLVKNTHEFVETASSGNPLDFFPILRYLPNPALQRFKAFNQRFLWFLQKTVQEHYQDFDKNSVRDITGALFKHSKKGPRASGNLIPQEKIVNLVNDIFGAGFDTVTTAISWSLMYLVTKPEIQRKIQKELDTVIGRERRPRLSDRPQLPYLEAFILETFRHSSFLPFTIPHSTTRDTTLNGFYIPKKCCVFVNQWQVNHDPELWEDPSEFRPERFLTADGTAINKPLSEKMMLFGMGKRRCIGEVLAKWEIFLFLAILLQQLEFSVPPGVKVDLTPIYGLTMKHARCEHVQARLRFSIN

[57] = Cmax in Sprague-Dawley rat at 100 mg/kg, po using PEG400 as vehicle; format: ADME, organism-based; design: dose 100 mg/kg, route oral; details: in vivo
[58] = Primary phase half life in rhesus monkey at 1 mg/kg, iv; format: ADME, organism-based, Macaca mulatta; design: dose 1 mg/kg, route intravenous; details: in vivo, read-out: alphat1/2 (converted)
[59] = Cmax in po dosed Sprague-Dawley rat; format: ADME, organism-based; design: route oral; details: in vivo
[60] = Plasma concentration in dog at 10 mg/kg, po after 12 hrs; format: ADME, organism-based, Canis lupus familiaris; design: dose 10 mg/kg, route oral
[61] = Oral bioavailability in po dosed dog; format: ADME, organism-based, Canis lupus familiaris; details: in vivo
[62] = Cmax in dog at 2 mg/kg, po; format: ADME, organism-based, Canis lupus familiaris; design: dose 2 mg/kg, route oral; details: in vivo
[63] = Plasma concentration in dog at 2 mg/kg, po after 12 hrs; format: ADME, organism-based, Canis lupus familiaris; design: dose 2 mg/kg, route oral
[64] = AUC in dog at 2 mg/kg, po; format: ADME, organism-based, Canis lupus familiaris; design: dose 2 mg/kg, route oral; details: plasma
[65] = Oral bioavailability in po dosed Sprague-Dawley rat; format: ADME, organism-based; details: in vivo

Sequence of Voltage-gated inwardly rectifying potassium channel KCNH2 (Q12809 whole entry): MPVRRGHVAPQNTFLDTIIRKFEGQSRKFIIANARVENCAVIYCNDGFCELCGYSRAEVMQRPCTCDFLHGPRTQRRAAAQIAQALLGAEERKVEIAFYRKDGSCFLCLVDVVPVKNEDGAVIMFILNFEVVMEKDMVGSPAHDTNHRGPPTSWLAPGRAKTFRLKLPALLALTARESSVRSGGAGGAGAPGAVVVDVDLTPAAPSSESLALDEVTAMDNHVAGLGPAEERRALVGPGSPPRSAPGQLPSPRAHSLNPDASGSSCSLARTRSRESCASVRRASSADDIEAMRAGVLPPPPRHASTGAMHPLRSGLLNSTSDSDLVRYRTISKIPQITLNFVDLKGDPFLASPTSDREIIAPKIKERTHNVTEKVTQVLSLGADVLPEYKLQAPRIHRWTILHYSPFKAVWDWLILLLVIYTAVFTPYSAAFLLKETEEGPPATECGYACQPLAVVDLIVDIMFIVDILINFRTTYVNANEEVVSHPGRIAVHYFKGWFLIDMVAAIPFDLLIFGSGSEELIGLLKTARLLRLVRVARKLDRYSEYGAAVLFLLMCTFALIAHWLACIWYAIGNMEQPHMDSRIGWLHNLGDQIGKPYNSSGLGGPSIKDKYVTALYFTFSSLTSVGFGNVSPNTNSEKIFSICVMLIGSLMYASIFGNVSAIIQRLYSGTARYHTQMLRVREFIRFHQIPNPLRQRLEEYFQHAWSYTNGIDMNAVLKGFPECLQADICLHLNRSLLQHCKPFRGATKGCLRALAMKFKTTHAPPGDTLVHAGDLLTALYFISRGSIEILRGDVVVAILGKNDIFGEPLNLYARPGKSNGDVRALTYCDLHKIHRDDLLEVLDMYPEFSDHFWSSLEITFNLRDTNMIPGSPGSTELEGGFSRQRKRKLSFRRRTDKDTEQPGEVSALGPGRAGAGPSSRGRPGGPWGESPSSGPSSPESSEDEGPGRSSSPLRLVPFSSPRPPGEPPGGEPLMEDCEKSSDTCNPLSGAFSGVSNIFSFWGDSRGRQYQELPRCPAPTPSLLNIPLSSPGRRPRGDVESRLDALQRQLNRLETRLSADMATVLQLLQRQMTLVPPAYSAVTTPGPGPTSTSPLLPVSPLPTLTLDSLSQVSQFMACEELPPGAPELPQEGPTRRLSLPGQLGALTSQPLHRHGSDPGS
Sequence of Cytochrome P450 2C9 (P11712 whole entry): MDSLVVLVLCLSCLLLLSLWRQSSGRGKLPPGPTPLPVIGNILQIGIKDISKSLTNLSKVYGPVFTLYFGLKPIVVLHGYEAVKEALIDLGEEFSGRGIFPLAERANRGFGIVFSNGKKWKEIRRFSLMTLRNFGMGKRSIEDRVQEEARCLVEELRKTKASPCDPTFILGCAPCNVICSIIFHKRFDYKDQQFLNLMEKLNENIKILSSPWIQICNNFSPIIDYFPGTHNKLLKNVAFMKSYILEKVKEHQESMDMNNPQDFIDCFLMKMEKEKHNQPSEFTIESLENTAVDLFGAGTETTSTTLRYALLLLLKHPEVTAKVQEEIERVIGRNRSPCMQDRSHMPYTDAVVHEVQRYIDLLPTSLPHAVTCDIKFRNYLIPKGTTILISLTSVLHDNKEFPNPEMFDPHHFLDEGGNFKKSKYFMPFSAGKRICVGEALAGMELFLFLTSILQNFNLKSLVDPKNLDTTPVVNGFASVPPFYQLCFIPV
Sequence of Cytochrome P450 3A4 (P08684 whole entry): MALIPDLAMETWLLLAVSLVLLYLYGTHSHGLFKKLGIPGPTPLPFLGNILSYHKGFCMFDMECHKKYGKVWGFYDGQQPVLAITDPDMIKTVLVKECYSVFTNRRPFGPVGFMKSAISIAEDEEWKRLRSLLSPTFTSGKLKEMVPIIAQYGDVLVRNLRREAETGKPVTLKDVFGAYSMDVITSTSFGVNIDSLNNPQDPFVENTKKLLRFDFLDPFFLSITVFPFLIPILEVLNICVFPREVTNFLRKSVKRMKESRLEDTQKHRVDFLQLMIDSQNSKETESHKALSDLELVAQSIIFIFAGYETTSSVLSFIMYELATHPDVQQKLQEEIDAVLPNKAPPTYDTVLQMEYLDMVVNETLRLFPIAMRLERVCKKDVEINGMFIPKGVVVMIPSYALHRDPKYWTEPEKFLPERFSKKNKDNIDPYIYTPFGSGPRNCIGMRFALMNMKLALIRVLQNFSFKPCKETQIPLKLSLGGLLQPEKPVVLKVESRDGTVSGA
Sequence of Human immunodeficiency virus type 1 integrase (Q7ZJM1 whole entry): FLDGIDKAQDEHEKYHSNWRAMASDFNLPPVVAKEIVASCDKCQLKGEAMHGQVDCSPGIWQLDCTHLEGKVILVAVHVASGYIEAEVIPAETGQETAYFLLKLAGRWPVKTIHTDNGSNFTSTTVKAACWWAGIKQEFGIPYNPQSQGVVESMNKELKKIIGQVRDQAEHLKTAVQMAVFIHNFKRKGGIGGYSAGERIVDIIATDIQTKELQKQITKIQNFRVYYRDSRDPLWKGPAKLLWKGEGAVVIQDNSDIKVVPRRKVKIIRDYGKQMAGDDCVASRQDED
Sequence of Cytochrome P450 2D6 (P10635 whole entry): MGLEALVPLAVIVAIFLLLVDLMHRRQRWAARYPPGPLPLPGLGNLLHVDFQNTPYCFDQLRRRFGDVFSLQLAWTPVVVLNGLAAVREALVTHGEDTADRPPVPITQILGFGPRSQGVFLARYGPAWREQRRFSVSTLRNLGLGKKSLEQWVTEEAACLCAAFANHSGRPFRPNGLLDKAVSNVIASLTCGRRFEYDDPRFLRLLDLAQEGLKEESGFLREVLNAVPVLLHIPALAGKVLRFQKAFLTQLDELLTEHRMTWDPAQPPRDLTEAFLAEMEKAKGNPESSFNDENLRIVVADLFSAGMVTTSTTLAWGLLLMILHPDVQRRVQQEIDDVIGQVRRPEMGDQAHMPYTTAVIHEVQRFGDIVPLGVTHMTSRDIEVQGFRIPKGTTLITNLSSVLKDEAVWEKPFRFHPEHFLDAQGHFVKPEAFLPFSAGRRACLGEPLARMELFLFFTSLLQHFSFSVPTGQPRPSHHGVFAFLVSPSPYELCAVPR

Cc1nnc(C(=O)NC(C)(C)c2nc(C(=O)NCc3ccc([19F])cc3)c(O)c(=O)n2C)o1
Drug uptake [1]: 90% | dose excreted [2]: 65% | dose excreted [3]: 10% | Drug uptake [4]: 35% | Stability [5]: 0.54 mL/h/kg | dose excreted [6]: 30% | Stability [7]: 0.12 mL/h/kg | Stability [8]: 2.04 mL/h/kg | Drug uptake [9]: 90% | dose excreted [10]: 10% | Stability [11]: 2.16 mL/h/kg

CN(C)C(=O)C(=O)NC(C)(C)c1nc(C(=O)NCc2ccc([19F])cc2)c(O)c(=O)n1C
Stability [5]: 0.48 mL/h/kg | Stability [7]: 0.18 mL/h/kg | Stability [8]: 1.2 mL/h/kg | Activity [12]: 5% | Activity [13]: 13% | Stability [11]: 2.76 mL/h/kg

CN(C)C(=O)C(=O)NC(C)(C)c1nc(C(=O)NCc2ccc(F)cc2)c(O)c(=O)n1C
Cmax [14]: 0.6 µM | IC50 [15]: > 50 µM | AUC [16]: 49 µM·h | IC50 [17]: 0.01 µM | AUC [18]: 23 µM·h | half-life [19]: 6 h | IC50 [20]: > 50 µM | IC50 [21]: > 50 µM | Activity [22]: 40% | IC50 [23]: > 50 µM | Activity [24]: 19% | AUC [25]: 23 µM·h | clearance [26]: 1200 mL/h/kg | half-life [27]: 0.9 h | half-life [28]: 1.9 h | Cmax [29]: 4.5 µM | IC50 [30]: > 50 µM | Cmax [31]: 11 µM | IC95 ([32]; Human immunodeficiency virus 1, 3B, MT4): 0.074 µM | IC95 [33]: 0.045 µM | half-life [34]: 4.9 h | clearance [35]: 660 mL/h/kg | AUC [36]: 0.7 µM·h | half-life [37]: 1.2 h | Vd [38]: 2.9 L/kg | Vd [39]: 1.3 L/kg | IC50 [40]: > 50 µM | Cmax [41]: 12 µM | Vd [42]: 1.1 L/kg | half-life [43]: 3 h | Activity [44]: 35% | IC50 [45]: > 50 µM | Activity [46]: 5% | IC50 [47]: > 50 µM | IC50 [48]: > 50 µM | Activity [49]: 8% | IC50 [50]: > 50 µM | AUC [51]: 5.2 µM·h | clearance [52]: 840 mL/h/kg | half-life [53]: 0.4 h | bioavailability [54]: 24% | half-life [55]: 16 h | IC50 [56]: > 50 µM | Cmax [57]: 31 µM | half-life [58]: 0.9 h

Cc1nnc(C(=O)NC(C)(C)c2nc(C(=O)NCc3ccc(F)cc3)c([O-])c(=O)n2C)o1.[K+] [RALTEGRAVIR POTASSIUM]
Cmax [59]: 1.6 µM | concentration at 12 h [60]: 0.35 µM | bioavailability [61]: 69% | half-life [27]: 7.5 h | Cmax [62]: 4.6 µM | concentration at 12 h [63]: 0.16 µM | Cmax [31]: 24 µM | IC95 [32]: 0.031 µM | half-life [34]: 13 h | AUC [36]: 1.3 µM·h | AUC [64]: 11 µM·h | bioavailability [65]: 45%

Reference: ChEMBL document CHEMBL1140081 (J Med Chem, 2008)
